Experimental data published in ChEMBL document CHEMBL1145498, “A systematic interaction map of validated kinase inhibitors with Ser/Thr kinases” (Proc Natl Acad Sci U S A, 2007).

Tests used:
[1] = target: T1, 3-phosphoinositide-dependent protein kinase 1 (Homo sapiens) (UniProt O15530)
T1 sequence (whole entry): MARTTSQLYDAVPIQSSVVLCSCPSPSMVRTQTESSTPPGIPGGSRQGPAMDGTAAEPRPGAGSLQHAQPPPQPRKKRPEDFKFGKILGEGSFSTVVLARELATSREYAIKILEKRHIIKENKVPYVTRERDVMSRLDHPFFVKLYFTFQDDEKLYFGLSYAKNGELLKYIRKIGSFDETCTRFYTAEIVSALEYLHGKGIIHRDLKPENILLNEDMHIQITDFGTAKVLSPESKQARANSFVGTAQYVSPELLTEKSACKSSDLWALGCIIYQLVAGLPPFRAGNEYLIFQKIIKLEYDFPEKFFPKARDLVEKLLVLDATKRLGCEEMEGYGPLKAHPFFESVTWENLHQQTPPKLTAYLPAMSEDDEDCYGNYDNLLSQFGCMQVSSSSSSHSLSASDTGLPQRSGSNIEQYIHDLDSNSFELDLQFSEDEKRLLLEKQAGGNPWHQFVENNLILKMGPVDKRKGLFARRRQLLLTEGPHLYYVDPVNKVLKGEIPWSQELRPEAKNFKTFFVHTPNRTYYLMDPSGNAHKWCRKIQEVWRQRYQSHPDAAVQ

[2] = target: Serine/threonine-protein kinase 25 (Homo sapiens) (UniProt O00506)
[3] = target: T2, Serine/threonine-protein kinase 17A (Homo sapiens) (UniProt Q9UEE5)
T2 sequence (whole entry): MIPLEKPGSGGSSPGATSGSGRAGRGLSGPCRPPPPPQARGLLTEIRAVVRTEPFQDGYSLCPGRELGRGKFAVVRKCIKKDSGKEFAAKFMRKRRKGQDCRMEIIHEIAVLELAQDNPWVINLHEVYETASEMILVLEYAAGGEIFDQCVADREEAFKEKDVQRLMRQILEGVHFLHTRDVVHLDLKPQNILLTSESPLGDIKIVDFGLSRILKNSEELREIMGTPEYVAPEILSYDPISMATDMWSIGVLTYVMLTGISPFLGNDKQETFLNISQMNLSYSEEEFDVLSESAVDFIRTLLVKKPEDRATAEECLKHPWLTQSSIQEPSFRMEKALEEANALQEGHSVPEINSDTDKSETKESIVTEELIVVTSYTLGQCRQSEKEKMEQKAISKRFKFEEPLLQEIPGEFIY

[4] = target: T3, Serine/threonine-protein kinase PLK4 (Homo sapiens) (UniProt O00444)
T3 sequence (whole entry): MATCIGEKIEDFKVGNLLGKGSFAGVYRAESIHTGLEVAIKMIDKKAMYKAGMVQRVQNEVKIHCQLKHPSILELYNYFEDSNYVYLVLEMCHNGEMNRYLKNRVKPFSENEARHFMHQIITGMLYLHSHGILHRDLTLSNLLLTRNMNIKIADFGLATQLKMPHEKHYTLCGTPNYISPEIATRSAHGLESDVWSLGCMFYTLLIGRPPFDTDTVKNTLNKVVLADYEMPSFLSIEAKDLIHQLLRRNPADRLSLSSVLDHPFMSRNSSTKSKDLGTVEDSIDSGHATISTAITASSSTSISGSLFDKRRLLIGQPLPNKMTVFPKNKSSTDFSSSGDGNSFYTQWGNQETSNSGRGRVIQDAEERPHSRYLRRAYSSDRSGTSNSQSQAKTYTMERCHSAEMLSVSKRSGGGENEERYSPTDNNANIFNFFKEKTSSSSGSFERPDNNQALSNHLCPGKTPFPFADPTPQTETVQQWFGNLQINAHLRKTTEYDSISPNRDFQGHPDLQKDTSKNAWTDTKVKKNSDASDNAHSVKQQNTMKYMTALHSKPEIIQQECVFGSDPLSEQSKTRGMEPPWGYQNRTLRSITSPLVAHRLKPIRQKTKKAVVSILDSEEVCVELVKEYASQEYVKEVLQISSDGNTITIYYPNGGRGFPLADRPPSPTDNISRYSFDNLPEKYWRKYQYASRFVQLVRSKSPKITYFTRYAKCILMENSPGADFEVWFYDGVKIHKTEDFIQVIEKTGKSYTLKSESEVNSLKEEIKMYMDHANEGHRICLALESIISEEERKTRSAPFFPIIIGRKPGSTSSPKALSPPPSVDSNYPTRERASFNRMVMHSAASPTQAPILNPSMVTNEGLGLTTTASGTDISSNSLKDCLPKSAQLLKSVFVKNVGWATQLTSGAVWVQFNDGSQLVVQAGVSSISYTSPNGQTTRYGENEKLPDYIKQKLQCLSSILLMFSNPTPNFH

[5] = target: Calcium/calmodulin-dependent protein kinase type II subunit gamma (Homo sapiens) (UniProt Q13555)
[6] = target: Calcium/calmodulin-dependent protein kinase type II subunit delta (Homo sapiens) (UniProt Q13557)
[7] = target: T4, Serine/threonine-protein kinase VRK1 (Homo sapiens) (UniProt Q99986)
T4 sequence (whole entry): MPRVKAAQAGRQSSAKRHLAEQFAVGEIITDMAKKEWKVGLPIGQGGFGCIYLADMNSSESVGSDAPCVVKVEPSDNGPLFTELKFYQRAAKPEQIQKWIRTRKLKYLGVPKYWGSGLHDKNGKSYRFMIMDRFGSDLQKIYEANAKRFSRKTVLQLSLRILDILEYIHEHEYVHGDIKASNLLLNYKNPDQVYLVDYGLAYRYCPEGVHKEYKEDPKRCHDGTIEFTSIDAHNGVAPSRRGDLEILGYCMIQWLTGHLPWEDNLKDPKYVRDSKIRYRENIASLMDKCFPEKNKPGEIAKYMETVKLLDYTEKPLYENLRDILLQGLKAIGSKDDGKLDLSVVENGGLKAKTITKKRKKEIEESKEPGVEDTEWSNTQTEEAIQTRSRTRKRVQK

Sequence of Calcium/calmodulin-dependent protein kinase type II subunit delta (Homo sapiens) (Q13557 whole entry): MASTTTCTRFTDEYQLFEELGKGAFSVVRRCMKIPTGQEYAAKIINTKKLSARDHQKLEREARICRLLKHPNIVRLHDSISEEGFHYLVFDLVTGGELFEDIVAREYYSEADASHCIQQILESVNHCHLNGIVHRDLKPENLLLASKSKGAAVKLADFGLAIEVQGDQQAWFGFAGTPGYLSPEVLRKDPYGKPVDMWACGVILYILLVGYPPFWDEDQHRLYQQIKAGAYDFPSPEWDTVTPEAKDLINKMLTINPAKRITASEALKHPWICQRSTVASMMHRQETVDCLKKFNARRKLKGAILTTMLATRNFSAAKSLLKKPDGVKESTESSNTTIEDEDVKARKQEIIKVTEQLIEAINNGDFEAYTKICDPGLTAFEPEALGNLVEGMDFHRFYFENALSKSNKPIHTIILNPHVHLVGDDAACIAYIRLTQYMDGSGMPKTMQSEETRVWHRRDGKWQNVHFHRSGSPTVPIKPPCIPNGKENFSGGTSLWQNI
Sequence of Serine/threonine-protein kinase 25 (Homo sapiens) (O00506 whole entry, looked up): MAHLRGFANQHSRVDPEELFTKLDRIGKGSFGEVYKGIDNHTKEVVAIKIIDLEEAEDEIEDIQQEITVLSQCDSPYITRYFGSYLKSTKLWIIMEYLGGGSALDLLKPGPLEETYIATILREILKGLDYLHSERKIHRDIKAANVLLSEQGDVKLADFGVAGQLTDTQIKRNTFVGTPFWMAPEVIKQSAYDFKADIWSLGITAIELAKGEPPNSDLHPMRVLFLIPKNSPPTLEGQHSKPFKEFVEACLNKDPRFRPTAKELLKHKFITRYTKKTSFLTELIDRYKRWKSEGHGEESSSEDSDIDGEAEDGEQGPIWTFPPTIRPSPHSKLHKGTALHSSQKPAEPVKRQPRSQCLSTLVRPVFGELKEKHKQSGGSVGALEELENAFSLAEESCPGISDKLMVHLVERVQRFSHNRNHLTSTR
Sequence of Calcium/calmodulin-dependent protein kinase type II subunit gamma (Homo sapiens) (Q13555 whole entry): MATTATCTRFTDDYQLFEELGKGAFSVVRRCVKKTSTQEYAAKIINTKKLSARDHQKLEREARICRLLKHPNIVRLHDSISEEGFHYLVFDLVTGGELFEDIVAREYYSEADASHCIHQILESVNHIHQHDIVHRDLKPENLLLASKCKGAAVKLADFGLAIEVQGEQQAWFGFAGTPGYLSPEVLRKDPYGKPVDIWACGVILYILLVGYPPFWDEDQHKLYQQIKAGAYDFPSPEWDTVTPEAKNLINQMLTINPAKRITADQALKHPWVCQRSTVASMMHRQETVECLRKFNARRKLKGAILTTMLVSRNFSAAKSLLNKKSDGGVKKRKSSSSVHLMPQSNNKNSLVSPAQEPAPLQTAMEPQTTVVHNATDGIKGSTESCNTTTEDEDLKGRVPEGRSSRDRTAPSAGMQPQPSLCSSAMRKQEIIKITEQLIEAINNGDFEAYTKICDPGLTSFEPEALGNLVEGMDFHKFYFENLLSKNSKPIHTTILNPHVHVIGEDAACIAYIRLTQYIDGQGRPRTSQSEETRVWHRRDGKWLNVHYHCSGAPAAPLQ

Compound	ΔTm [1]	ΔTm [2]	ΔTm [3]	ΔTm [4]	ΔTm [5]	ΔTm [6]	ΔTm [7]
O=[N+]([O-])c1ccc(-c2nc(-c3ccc(F)cc3)c(-c3ccncc3)[nH]2)cc1	-0.1 °C	0.9 °C	0.6 °C	1.8 °C	-0.3 °C	0.1 °C	0 °C
O=c1cc(N2CCOCC2)oc2c(-c3ccccc3)cccc12	0 °C	0 °C	1 °C	0 °C	0.3 °C	0.4 °C	0.8 °C
NC1=NC(=O)/C(=C2\CCNC(=O)c3[nH]c(Br)cc32)N1 [HYMENIALDISINE]	-0.2 °C	3.5 °C	14.8 °C	3 °C	0.2 °C	0 °C	2 °C
O=C1Cc2c([nH]c3ccc([N+](=O)[O-])cc23)-c2ccccc2N1	0 °C	2.4 °C	11.4 °C	6.9 °C	-0.1 °C	0 °C	0.2 °C
O=C1Nc2ccccc2/C1=C1/Nc2ccccc2/C1=N\O	0.8 °C	4.9 °C	9.9 °C	10.9 °C	5.3 °C	2.8 °C	1.7 °C

Second part, the compound after the results:

ΔTm [1]	ΔTm [2]	ΔTm [3]	ΔTm [4]	ΔTm [5]	ΔTm [6]	ΔTm [7]	Compound
-0.8 °C	3.4 °C	-0.1 °C	1.2 °C	0.6 °C	0.2 °C	0.5 °C	CC(C)N(CCO)c1nc(Nc2cccc(Cl)c2)c2ncn(C(C)C)c2n1
-1 °C	0.6 °C	4.8 °C	1.3 °C	-0.3 °C	0.9 °C	1.7 °C	O=C1Nc2ccc(I)cc2/C1=C\c1cc(Br)c(O)c(Br)c1
-0.3 °C	0.5 °C	2.8 °C	1.3 °C	-0.2 °C	1 °C	0.2 °C	N#C/C(=C\c1ccc(O)c(O)c1)C(=O)Nc1ccccc1
